The target of one experiment is T1, SOCS2-EloBC (Homo sapiens, UniProt O14508+Q15369+Q15370).
T1 construct: Recombinant human SOCS2 (amino acids 32–198); His6 (cleaved yes); made in house; host or cells: Escherichia coli BL21(DE3)
In words: ITC of GHR peptides and phosphotyrosine into SOCS2-EloBC. It counts as binding. Particulars: 298 K.

In experiment [1] the test system is CRL5^SOCS2 (SOCS2, EloB, EloC, Cul5, and Rbx2). In words: Peptide bead pull-down from K562 cell lysate, CRL5^SOCS2 components. The experiment is classed as binding. The settings on record: immobilized peptide beads, human K562 total cell lysate, 2 h at 4 °C, tandem mass tags MS. The text has this: (§1) After washing, bound proteins were eluted with SDS-sample buffer and prepared for tandem mass tags labeling and MS analysis as described previously ([17]).

Experiment [2] has as its target GHR_pY595-SOCS2-EloBC complex. In words: ITC of Cul5NTD into GHR_pY595-SOCS2-EloBC (cooperativity). The experiment is classed as binding, human. Particulars: titration of Cul5NTD into GHR_pY595-SOCS2-EloBC complex. Here is the method:
Experiments were conducted using an iTC200 microcalorimeter instrument (GE Healthcare). […] Peptides and Tyr(P) were dissolved in the same buffer. Obtained data were analyzed and fitted using the Microcal Origin version 7.0 software package. Binding enthalpy, dissociation constants, and stoichiometry were determined by fitting the data using a one-set-of-site binding model.

The subject of experiment [3] is CRL1^FBXO31 E3 ligase (FBXO31, Rbx1, Cul1, and Skp1). Kind of experiment: Peptide bead pull-down from K562 cell lysate, CRL1^FBXO31 subunits. Particulars: peptide beads, human K562 cell lysate, 2 h at 4 °C, MS. It counts as binding.
From the text: as §1

For the next experiment, the target named is SOCS2 (UniProt O14508). In words: peptide-bead pull-down from lysate, TMT MS. The settings on record: reference: GHR_Y595 peptide beads; sites Y595.

*: point of attachment. Biotin = O=C1N[C@H]2[C@H](CS[C@H]2CCCCC(=O)*)N1; Ahx = NCCCCCC(=O)O

T1 sequence (O14508 32-198): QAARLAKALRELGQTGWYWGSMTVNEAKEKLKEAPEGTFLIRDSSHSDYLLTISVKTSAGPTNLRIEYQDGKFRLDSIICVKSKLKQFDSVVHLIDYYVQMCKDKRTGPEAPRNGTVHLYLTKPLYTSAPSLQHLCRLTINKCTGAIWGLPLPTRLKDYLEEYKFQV
T1 sequence (Q15369 17-112 partner limits assumed): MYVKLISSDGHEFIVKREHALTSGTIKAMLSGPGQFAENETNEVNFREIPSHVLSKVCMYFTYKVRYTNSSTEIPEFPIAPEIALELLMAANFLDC
T1 sequence (Q15370 whole entry partner, the tested form may be a part): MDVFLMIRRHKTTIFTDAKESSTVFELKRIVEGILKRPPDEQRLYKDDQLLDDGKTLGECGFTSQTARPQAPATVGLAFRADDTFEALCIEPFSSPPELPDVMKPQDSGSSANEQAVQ

In turn, `N[C@@H](Cc1ccc(OP(=O)(O)O)cc1)C(=O)O` [Tyr(P), phosphotyrosine] displayed a Kd at SOCS2-EloBC (350 μM peptide or 2 mM Tyr(P) into 30 μM SOCS2-EloBC, 50 mM HEPES, pH 7.5, 250 mM NaCl, 0.5 mM TCEP, one-set-of-site model) of 191 µM. Besides, at SOCS2-EloBC (ratio of Kd), the “binding affinity weaker than for phosphorylated peptide GHR_pY595” value was ~100 -fold.

Consider “Biotin-aminohexanoic acid-PVPDpYTSIHIV-amide [GHR_pY595-beads]”, for which the “capture of CRL5^SOCS2 components on peptide beads” value in experiment [1] was “endogenous components of CRL5^SOCS2 E3 ligase were only captured by GHR_pY595-beads”.

In the case of “Cul5NTD: Recombinant human Cul5NTD (N-terminal domain, residues 1–386) expressed in E. coli”, the “change in Kd or ΔH (cooperativity)” value in experiment [2] was “No change in the Kd or ΔH values was observed”.

On to “GHR_Y595-containing beads: biotinylated non-phosphorylated GHR_Y595 peptide immobilized on high capacity Neutravidin beads ({Biotin-Ahx}-PVPDYTSIHIV-NH2; SMILES CC[C@H](C)[C@H](NC(=O)[C@H](CO)NC(=O)[C@@H](NC(=O)[C@H](Cc1ccc(O)cc1)NC(=O)[C@H](CC(=O)O)NC(=O)[C@@H]1CCCN1C(=O)[C@@H](NC(=O)[C@@H]1CCCN1C(=O)CCCCCNC(=O)CCCC[C@@H]1SC[C@@H]2NC(=O)N[C@@H]21)C(C)C)[C@@H](C)O)C(=O)N[C@@H](Cc1c[nH]cn1)C(=O)N[C@H](C(=O)N[C@H](C(N)=O)C(C)C)[C@@H](C)CC)”, for which the “capture of CRL1^FBXO31 subunits” value in experiment [3] was “significant recruitment of the four CRL1^FBXO31 subunits was also observed”. The “capture of CRL5^SOCS2 components on peptide beads” value in experiment [1] is given as “no significant capturing from cell lysates was observed”.

Turning to “growth hormone receptor (GHR) (from UniProt P10912) GHR_pY595 peptide beads”, the “binding against the reference” value in the experiment with SOCS2 is given as “gained”.
